Reference: the supplement of paper PMC9265050, “Inhibition of RNA Binding in SND1 Increases the Levels of miR-1-3p and Sensitizes Cancer Cells to Navitoclax” (Cancers, 2022)

Test system: SW480
Test: drug sensitivity score (DSS, integrated dose-response area); higher = more sensitive (stronger viability reduction); extreme values may be limits of the assay
Summary of the method: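 SW480 cells stably carrying doxycycline-inducible control or SND1-targeting shRNA were induced with 0.1 µg/mL doxycycline for 7 days. They were then plated at 1000 cells per well in 384-well plates holding 525 commercially available small-molecule inhibitors at five concentrations. Viability was read with CellTiter-Glo after 72 h. The drug sensitivity score integrates the area under a fitted non-linear dose–response model.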

[1] = shRNA: SND1 shRNA1 (SND1 silenced)
[2] = shRNA: SND1 shRNA2 (SND1 silenced)
[3] = shRNA: control shRNA (non-targeting)

Compound	drug sensitivity score [1] [DSS]	drug sensitivity score [2] [DSS]	drug sensitivity score [3] [DSS]
CNC(=O)c1ccc2cc([C@@]3(O)CCn4cncc43)ccc2c1 [Orteronel]	0	0	0
C=CC(=O)Nc1cc(Nc2nccc(-c3cn(C)c4ccccc34)n2)c(OC)cc1N(C)CCN(C)C [Osimertinib]	8.5	3.6	9.6
O=C(O)C(=O)O.[NH-][C@@H]1CCCC[C@H]1[NH-].[Pt+2] [Oxaliplatin]	14	–	16.7
C=CCc1cccc(/C=N/NC(=O)CN2CCN(Cc3ccccc3)CC2)c1O [PAC-1]	6.8	6.3	7
O=C(Nc1cccnc1)N1CCC(Cc2cccc(Oc3ccc(C(F)(F)F)cn3)c2)CC1 [PF-3845]	0.1	2.4	0.3
COc1ccccc1S(=O)(=O)Nc1ccc2c(c1)CN(C)C(=O)N2 [PFI-1]	1.8	0.5	0.4
CN1CCN(c2cc(C(=O)Nc3ccc4c(c3)-c3c(c(C(N)=O)nn3-c3ccc(F)cc3)CC4)c(Cl)cn2)CC1 [PHA 408]	5.3	–	5.2
CCn1nnc2c(N3CCOCC3)nc(-c3ccc(NC(=O)Nc4ccc(C(=O)N5CCN(C)CC5)cc4)cc3)nc21 [PKI-402]	6	6.6	8.2
O=C(Nc1cc(Cl)cc2c1[nH]c1cnccc12)c1cccnc1 [PS-1145]	0.4	0	1.8
COc1cc(Br)c(Nc2nc(-c3c(C)nc4ncccn34)cs2)c(Br)c1 [PTC-209]	6.7	2.2	7.1
CC(=O)O[C@H]1C(=O)[C@@]2(C)[C@H]([C@H](OC(=O)c3ccccc3)[C@]3(O)C[C@H](OC(=O)[C@H](O)[C@@H](NC(=O)c4ccccc4)c4ccccc4)C(C)=C1C3(C)C)[C@]1(OC(C)=O)CO[C@@H]1C[C@@H]2O [Paclitaxel]	11.5	12.5	14.1
C1=N/C2=N/c3ccc(OCCN4CCCC4)c(c3)COC/C=C/COCc3cccc(c3)C(=C1)N2 [Pacritinib]	9.6	–	10
CC(=O)c1c(C)c2cnc(Nc3ccc(N4CCNCC4)cn3)nc2n(C2CCCC2)c1=O [Palbociclib]	10.6	10.4	6.6
COc1ccc(COc2cc3oc(=O)c4cc(C(C)O)ccc4c3cc2OC)cc1 (centres undefined) [Palomid-529]	0	0	1.7
Cc1[nH]c2ccccc2c1CCNCc1ccc(/C=C/C(=O)NO)cc1 [Panobinostat]	19.9	19.2	17.4
C/C(=C\c1csc(C)n1)[C@@H]1C[C@@H]2O[C@]2(C)CCC[C@H](C)[C@H](O)[C@@H](C)C(=O)C(C)(C)[C@@H](O)CC(=O)O1 [Patupilone]	17.9	18.3	18.4
Cc1ccc(Nc2nccc(N(C)c3ccc4c(C)n(C)nc4c3)n2)cc1S(N)(=O)=O [Pazopanib]	0.5	7.1	1.8
CCOc1cc2ncc(C#N)c(Nc3ccc(F)c(Cl)c3)c2cc1NC(=O)/C=C/CN(C)C [Pelitinib]	7.8	8.6	12.3
Nc1nc2[nH]cc(CCc3ccc(C(=O)N[C@@H](CCC(=O)O)C(=O)O)cc3)c2c(=O)[nH]1 [Pemetrexed]	9.9	–	6.5
OC[C@H]1O[C@@H](n2cnc3c2N=CNC[C@H]3O)C[C@@H]1O [Pentostatin]	1.6	3.5	2.9
CCCCCCCCCCCCCCCCCCOP(=O)([O-])OC1CC[N+](C)(C)CC1 [Perifosine]	2.3	–	3.7
NS(=O)(=O)OC[C@@H]1C[C@@H](n2ccc3c(N[C@H]4CCc5ccccc54)ncnc32)C[C@@H]1O [Pevonedistat]	4.5	–	8.2
FC(F)(F)c1ccc(CNc2ccc(Cc3c[nH]c4ncc(Cl)cc34)cn2)cn1 [Pexidartinib]	0.3	0.8	0.7
COc1ccc(Cl)c(Nc2nc3ccccc3nc2NS(=O)(=O)c2cccc(NC(=O)C(C)(C)N)c2)c1 [Pilaralisib]	0.8	0.7	0.8
CC[C@@H]1C(=O)OC[C@@H]1Cc1cncn1C [Pilocarpine]	0.6	0	0.2

Compound	drug sensitivity score [1] [DSS]	drug sensitivity score [2] [DSS]	drug sensitivity score [3] [DSS]
O=C(NC[C@H](O)CO)c1ccncc1Nc1ccc(I)cc1F [Pimasertib]	26.3	16.5	7.4
CC(C)N(C[C@H]1O[C@@H](n2cnc3c(N)ncnc32)[C@H](O)[C@@H]1O)[C@H]1C[C@@H](CCc2nc3cc(C(C)(C)C)ccc3[nH]2)C1 [Pinometostat]	0	2.6	0
O=C(CCBr)N1CCN(C(=O)CCBr)CC1 [Pipobroman]	0.1	1.5	0.1
NCCNc1ccc(NCCN)c2c1C(=O)c1ccncc1C2=O [Pixantrone]	0	0	0
c1cc(CN2CCCNCCNCCCNCC2)ccc1CN1CCCNCCNCCCNCC1 [Plerixafor]	0	–	0
CO[C@H](C(=O)[C@@H](O)[C@@H](C)O)[C@@H]1Cc2cc3cc(O[C@H]4C[C@@H](O[C@@H]5C[C@@H](O)[C@H](O)[C@@H](C)O5)[C@H](O)[C@@H](C)O4)c(C)c(O)c3c(O)c2C(=O)[C@H]1O[C@H]1C[C@@H](O[C@@H]2C[C@@H](O)[C@@H](O[C@@H]3C[C@](C)(O)[C@H](O)[C@@H](C)O3)[C@@H](C)O2)[C@H](O)[C@@H](C)O1 [Plicamycin]	1.9	0	3.5
Nc1cccc2c1C(=O)N(C1CCC(=O)NC1=O)C2=O (centres undefined) [Pomalidomide]	0	0	0
Cc1ccc(C(=O)Nc2ccc(CN3CCN(C)CC3)c(C(F)(F)F)c2)cc1C#Cc1cnc2cccnn12 [Ponatinib]	5.9	4.8	4.4
C=CC(=O)N1CCC(Oc2cc3c(Nc4ccc(Cl)c(Cl)c4F)ncnc3cc2OC)CC1 [Poziotinib]	0.6	4.1	0.2
CCCCc1nc2cc(/C=C/C(=O)NO)ccc2n1CCN(CC)CC [Pracinostat]	21.1	17.2	19.3
CC[C@H](C)C(=O)O[C@H]1C[C@H](O)C=C2C=C[C@H](C)[C@H](CC[C@@H](O)C[C@@H](O)CC(=O)O)[C@H]21 [Pravastatin]	0	–	3.1
C[C@]12C=CC(=O)C=C1CC[C@@H]1[C@@H]2[C@@H](O)C[C@@]2(C)[C@H]1CC[C@]2(O)C(=O)CO [Prednisolone]	0	0	0
C[C@]12C=CC(=O)C=C1CC[C@@H]1[C@@H]2C(=O)C[C@@]2(C)[C@H]1CC[C@]2(O)C(=O)CO [Prednisone]	0.5	0.1	2.9
COc1cccc(OCCCN)c1-c1cc(Nc2cnc(C#N)cn2)n[nH]1 [Prexasertib]	29.1	26.2	28.1
CNNCc1ccc(C(=O)NC(C)C)cc1 [Procarbazine]	0	0	0
Cc1cc(-c2ncc(-c3cccnc3)cc2/C=C/c2ccccc2)cnc1-c1cccnc1 [Pyridoclax]	4.1	2.7	0.2
Cn1cc(CNCC2CCN(c3ncc(C(=O)NO)cn3)CC2)c2ccccc21 [Quisinostat]	14.9	14.6	13.6
CC(C)(C)c1cc(NC(=O)Nc2ccc(-c3cn4c(n3)sc3cc(OCCN5CCOCC5)ccc34)cc2)no1 [Quizartinib]	0	0	0
Cn1c(Nc2ccc(C(F)(F)F)cc2)nc2cc(Oc3ccnc(-c4ncc(C(F)(F)F)[nH]4)c3)ccc21 [RAF265]	0	1.8	2
CNC(=O)c1ccc(N2C(=S)N(c3ccc(C#N)c(C(F)(F)F)c3)C(=O)C23CCC3)cc1F [RD162]	0.3	2.7	0.8
CCNC(=O)Nc1ccc(-c2nc3c(c(N4CCOC[C@@H]4C)n2)CCN(C2COC2)C3)cc1 [RG-7603]	0.7	1.3	0.7
Nc1cc(F)ccc1NC(=O)/C=C/c1cnn(C/C=C/c2ccccc2)c1 [RGFP966]	6.3	6.3	6.8
Cc1cnc(NC(=O)Nc2cc(Br)c(C)cc2OC[C@@H]2CNCCO2)cn1 [Rabusertib]	1.8	1.4	2
C[C@@H]1C[C@H]2O[C@@H]2/C=C\C=C\C(=O)Cc2c(Cl)c(O)cc(O)c2C(=O)O1 [Radicicol]	13.4	12.1	12.3
